Measured values taken from ChEMBL document CHEMBL1201862, “PubChem BioAssay data set” (2004).
Calls of active or inactive are those of the source.

Legend:
[1] = target: Ubiquitin carboxyl-terminal hydrolase BAP1 (Homo sapiens, UniProt Q92560); assay: inhibition of BAP1 ubiquitin hydrolase activity – biochemical, dose response (AID 714); format: functional
[2] = target: T1, RNA-binding protein pos-1 (Caenorhabditis elegans, UniProt G5EF15); assay: disruptors of C. elegans POS-1 RNA interaction – biochemical, fluorescence polarization, dose response (AID 1964);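 further: purified POS-1 fused to maltose binding protein made in E. coli; potency of compounds blocking POS-1 binding to fluorescent RNA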
T1 sequence (G5EF15 whole entry): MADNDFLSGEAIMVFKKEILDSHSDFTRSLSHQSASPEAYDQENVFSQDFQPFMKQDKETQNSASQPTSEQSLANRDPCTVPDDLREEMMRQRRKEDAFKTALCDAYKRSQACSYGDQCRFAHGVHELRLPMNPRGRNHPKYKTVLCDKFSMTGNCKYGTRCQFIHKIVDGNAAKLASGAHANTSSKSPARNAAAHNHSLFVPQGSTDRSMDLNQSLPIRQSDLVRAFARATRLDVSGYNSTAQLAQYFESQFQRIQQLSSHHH

[3] = target: T2, Zinc finger protein mex-5 (Caenorhabditis elegans, UniProt Q9XUB2); assay: potency of MEX-5 RNA-binding blockers – biochemical, C. elegans, fluorescence polarization, dose response (AID 1960)
T2 sequence (Q9XUB2 whole entry): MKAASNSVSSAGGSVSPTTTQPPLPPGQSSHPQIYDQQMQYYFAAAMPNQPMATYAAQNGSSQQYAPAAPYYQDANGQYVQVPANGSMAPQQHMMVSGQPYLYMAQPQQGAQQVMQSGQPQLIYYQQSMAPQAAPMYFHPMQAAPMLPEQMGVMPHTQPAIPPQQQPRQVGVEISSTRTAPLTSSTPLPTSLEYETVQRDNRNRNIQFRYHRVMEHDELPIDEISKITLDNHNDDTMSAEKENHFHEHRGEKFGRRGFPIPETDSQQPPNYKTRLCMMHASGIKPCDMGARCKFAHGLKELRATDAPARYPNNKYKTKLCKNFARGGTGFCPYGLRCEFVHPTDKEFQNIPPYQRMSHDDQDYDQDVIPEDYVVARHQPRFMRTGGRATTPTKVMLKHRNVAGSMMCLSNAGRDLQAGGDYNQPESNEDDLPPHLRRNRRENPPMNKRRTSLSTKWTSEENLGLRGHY

[4] = target: 5-hydroxytryptamine receptor 1A (Homo sapiens, UniProt P08908); format: functional
Protein skinhead-1 = target: T3, Protein skinhead-1 (Caenorhabditis elegans, UniProt P34707); format: functional
T3 sequence (P34707 whole entry): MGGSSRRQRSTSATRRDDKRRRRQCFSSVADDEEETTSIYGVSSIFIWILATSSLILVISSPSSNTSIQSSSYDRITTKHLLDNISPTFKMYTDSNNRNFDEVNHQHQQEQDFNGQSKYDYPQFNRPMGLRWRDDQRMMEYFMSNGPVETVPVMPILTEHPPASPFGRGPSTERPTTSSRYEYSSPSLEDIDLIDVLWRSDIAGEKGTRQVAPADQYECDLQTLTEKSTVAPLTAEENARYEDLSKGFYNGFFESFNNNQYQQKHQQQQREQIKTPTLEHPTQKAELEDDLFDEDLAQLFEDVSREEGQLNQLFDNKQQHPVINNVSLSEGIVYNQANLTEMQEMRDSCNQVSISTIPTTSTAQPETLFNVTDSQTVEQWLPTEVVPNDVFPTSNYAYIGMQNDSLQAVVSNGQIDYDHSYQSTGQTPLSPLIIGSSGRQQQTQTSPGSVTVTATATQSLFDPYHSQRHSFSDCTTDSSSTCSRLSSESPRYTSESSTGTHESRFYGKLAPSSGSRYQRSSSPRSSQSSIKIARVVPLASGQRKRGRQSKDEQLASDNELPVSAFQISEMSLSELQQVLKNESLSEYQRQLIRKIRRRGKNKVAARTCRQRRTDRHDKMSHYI

[5] = Luminescence Cell-Based Dose Confirmation HTS to Identify Inhibitors of Polyadenylation.; format: functional
[6] = target: T4, Tyrosine-protein phosphatase non-receptor type 7 (Homo sapiens, UniProt P35236); assay: HePTP tyrosine phosphatase activity blockers – biochemical, absorbance, leukemia target, primary screen (AID 521); format: functional
T4 sequence (P35236 whole entry): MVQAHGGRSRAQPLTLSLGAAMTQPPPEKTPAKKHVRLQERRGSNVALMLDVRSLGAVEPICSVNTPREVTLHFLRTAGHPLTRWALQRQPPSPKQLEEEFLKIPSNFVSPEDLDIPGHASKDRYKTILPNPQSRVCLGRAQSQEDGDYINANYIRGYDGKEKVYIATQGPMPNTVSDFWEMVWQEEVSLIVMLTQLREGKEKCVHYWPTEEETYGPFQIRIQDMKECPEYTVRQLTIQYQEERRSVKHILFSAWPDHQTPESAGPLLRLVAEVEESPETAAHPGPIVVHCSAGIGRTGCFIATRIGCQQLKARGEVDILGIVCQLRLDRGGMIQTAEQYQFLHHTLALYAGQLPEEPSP

[7] = target: T5, Calpain-2 catalytic subunit (Sus scrofa, UniProt P43367); assay: m-calpain protease blockers, concentration series – biochemical, fluorogenic peptide substrate, dose response (AID 1420); format: functional
T5 sequence (P43367 whole entry): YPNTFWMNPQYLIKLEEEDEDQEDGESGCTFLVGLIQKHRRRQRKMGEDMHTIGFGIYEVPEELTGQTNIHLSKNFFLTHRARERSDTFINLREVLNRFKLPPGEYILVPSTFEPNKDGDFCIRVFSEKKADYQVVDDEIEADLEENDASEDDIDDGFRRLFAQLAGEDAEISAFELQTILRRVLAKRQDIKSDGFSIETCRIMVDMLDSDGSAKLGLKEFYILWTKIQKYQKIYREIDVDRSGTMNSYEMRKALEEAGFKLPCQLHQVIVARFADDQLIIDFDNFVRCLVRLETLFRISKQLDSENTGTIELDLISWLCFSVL

[8] = Luminescence Cell-Based Dose Confirmation HTS to Identify Inhibitors of Platelet Dense Granule Release. [Related pubchem assays: 1663 (Primary HTS), 1678 (Summary of Project)]; format: functional
Estrogen receptor = target: T6, Estrogen receptor (Homo sapiens, UniProt P03372);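 further: potency for inhibiting coactivator peptide recruitment to the receptor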
T6 sequence (P03372 whole entry): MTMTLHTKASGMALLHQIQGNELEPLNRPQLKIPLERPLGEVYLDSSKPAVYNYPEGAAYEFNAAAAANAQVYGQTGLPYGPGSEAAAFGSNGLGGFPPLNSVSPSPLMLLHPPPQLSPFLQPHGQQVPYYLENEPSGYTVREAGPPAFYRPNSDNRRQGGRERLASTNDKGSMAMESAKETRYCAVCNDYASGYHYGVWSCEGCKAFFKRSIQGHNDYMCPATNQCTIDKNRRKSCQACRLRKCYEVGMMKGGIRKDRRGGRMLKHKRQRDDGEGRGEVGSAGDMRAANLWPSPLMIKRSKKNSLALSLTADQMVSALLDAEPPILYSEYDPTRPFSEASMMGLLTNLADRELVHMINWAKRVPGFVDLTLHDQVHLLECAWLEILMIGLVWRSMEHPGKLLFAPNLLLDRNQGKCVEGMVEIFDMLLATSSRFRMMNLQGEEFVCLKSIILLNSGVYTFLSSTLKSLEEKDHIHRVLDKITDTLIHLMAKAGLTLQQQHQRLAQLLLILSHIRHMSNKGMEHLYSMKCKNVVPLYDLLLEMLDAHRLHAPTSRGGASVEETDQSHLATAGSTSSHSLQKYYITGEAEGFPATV

[9] = target: T7, Carboxy-terminal domain RNA polymerase II polypeptide A small phosphatase 1 (Homo sapiens, UniProt Q9GZU7); assay: CTDSP1 inhibitors, concentration-response, biochemical, absorbance readout, ultra-high-throughput screen actives (AID 540297); format: functional
T7 sequence (Q9GZU7 whole entry): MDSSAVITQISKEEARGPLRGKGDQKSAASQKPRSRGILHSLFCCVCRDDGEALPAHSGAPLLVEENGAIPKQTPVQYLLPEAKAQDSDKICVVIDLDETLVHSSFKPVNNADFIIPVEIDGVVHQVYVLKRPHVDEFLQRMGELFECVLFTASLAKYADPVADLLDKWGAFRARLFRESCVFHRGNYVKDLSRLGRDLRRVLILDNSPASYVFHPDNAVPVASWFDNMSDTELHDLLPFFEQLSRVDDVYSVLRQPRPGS

[10] = target: Luciferin 4-monooxygenase (Photinus pyralis, UniProt P08659); assay: inhibition of purified Photinus pyralis luciferase – biochemical, luminescence, dose response (AID 1891)
Estrogen receptor beta [11] = target: T8, Estrogen receptor beta (Homo sapiens, UniProt Q92731);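 further: recombinant ER-beta bound to coactivator SRC1 peptide in presence of estradiol agonist; inhibitors block coactivator peptide binding and lower the FRET signal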
Estrogen receptor beta [12] = target: T8, Estrogen receptor beta; assay: blockers of SRC-3 recruitment to ERβ – biochemical, ELISA, streptavidin-HRP readout, orthogonal assay, confirmation (AID 1060)
Albumin = Albumin (Bos taurus, UniProt P02769); assay: Counterscreen for inhibitors of T-cell receptor (TCR)-CD3 interaction: Fluorescence-based biochemical high throughput dose response assay to identify inhibitors of T-cell receptor (TCR)-CD3 interaction using a TAMRA-labeled BSA probe.; format: functional
[13] = target: Induced myeloid leukemia cell differentiation protein Mcl-1 (Homo sapiens, UniProt Q07820); assay: blockers of MCL1 binding to BIM peptide – biochemical, fluorescence polarization, BIM-BH3 peptide, 1536-well, dose response (AID 2217)
Caspase-6 = target: T9, Caspase-6 (Homo sapiens, UniProt P55212); assay: inhibition of CASP6 peptide cleavage – biochemical, VEID-R110 fluorescence, cherry-pick, dose response (AID 720632)
T9 sequence (P55212 whole entry): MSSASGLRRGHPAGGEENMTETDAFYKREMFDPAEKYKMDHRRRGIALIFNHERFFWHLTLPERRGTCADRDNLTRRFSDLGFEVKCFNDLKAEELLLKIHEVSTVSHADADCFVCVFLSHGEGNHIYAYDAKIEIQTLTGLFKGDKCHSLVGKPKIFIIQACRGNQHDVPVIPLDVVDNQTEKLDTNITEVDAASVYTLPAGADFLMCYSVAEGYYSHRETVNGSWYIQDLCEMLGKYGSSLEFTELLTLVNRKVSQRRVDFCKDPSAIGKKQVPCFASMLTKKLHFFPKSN

Bcl-2-like protein 1 = Bcl-2-like protein 1 (Homo sapiens, UniProt Q07817); assay: blockers of BCLXL peptide binding – biochemical, fluorescence polarization, 1536-well, selectivity assay for MCL1 inhibitor project, dose response (AID 2218)
Cytochrome P450 2D6 = Cytochrome P450 2D6 (Homo sapiens, UniProt P10635);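 further: CYP2D6 member of a cytochrome P450 panel assay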
[14] = Luminescence Cell-Based Dose Response to Identify Activators of Luciferase Translation or Activity in H4-C Neuroglioblastoma Cells. [Related pubchem assays: 1829 (Project Summary), 1814 (Primary HTS)]; format: functional
[15] = Luminescence Cell-Based Dose Response to Identify Activators of 5'UTR Stem-Loop Driven Prion Protein mRNA Translation in H4-C Neuroglioblastoma Cells. [Related pubchem assays: 1829 (Project Summary), 1814 (Primary HTS)]; format: functional
[16] = Luminescence Cell-Based Dose Confirmation to Identify Activators of 5'UTR Stem-Loop Driven Alpha-Synuclein mRNA Translation in H4 Neuroglioblastoma Cells. [Related pubchem assays: 1829 (Project Summary), 1814 (Primary HTS)]; format: functional
H4 = assay: Luminescence Cell-Based Dose Response HTS to Identify Activators of 5'UTR Stem-Loop Driven Prion Protein mRNA Translation in H4 Neuroglioblastoma Cells. [Related pubchem assays: 1829 (Project Summary), 1814 (Primary HTS)]; format: functional; conditions: Homo sapiens
Cytochrome P450 2C19 = Cytochrome P450 2C19 (Homo sapiens, UniProt P33261); assay: Cytochrome panel assay with activity outcomes. Panel member name: p450-cyp2c19 Compounds with AC50 equal or less than 10 uM are considered active; format: functional; conditions: read-out: AC50
[17] = Luminescence Cell-Based Dose Response HTS to Identify Activators of Luciferase Translation or Activity in H4 […] Cells. [Related pubchem assays: 1829 (Project Summary), 1814 (Primary HTS)]; format: functional
[18] = target: T10, Polyadenylate-binding protein 1 (Homo sapiens, UniProt P11940); assay: MLLE binding blockers, Cy5 peptide tracer – biochemical, fluorescence polarization, Cy5-PAM2 peptide, secondary, miRNA deadenylation inhibitor project, dose response (AID 602260); format: functional; conditions: read-out: IC50_Mean
[19] = target: Voltage-gated inwardly rectifying potassium channel KCNH2 (Homo sapiens, UniProt Q12809); assay: concentration-dependent hERG rescue from blockers – cell-based, thallium flux, dose response (AID 2121); format: ADME
[20] = target: T10, Polyadenylate-binding protein 1; assay: MLLE domain peptide-binding blockers, IC50 – biochemical, fluorescence polarization, FITC-PAM2 peptide, dose response (AID 602259); format: functional; conditions: read-out: IC50_Mean

T10 sequence (P11940 whole entry): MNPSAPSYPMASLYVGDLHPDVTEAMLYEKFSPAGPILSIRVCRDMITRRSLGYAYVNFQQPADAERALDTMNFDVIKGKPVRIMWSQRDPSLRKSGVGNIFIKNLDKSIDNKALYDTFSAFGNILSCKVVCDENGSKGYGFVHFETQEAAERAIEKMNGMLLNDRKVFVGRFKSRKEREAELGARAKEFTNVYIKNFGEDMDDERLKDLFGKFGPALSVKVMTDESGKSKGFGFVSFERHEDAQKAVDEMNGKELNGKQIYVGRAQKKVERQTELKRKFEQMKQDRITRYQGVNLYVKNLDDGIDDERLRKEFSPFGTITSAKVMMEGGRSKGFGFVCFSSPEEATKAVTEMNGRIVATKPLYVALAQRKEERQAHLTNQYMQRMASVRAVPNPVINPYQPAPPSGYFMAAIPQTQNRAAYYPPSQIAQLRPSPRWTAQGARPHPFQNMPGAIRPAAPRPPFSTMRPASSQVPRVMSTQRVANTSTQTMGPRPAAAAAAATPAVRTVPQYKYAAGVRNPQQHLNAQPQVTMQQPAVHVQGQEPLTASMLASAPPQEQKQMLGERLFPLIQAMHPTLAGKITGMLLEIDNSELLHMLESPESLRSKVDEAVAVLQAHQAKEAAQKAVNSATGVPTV
T8 sequence (Q92731 whole entry): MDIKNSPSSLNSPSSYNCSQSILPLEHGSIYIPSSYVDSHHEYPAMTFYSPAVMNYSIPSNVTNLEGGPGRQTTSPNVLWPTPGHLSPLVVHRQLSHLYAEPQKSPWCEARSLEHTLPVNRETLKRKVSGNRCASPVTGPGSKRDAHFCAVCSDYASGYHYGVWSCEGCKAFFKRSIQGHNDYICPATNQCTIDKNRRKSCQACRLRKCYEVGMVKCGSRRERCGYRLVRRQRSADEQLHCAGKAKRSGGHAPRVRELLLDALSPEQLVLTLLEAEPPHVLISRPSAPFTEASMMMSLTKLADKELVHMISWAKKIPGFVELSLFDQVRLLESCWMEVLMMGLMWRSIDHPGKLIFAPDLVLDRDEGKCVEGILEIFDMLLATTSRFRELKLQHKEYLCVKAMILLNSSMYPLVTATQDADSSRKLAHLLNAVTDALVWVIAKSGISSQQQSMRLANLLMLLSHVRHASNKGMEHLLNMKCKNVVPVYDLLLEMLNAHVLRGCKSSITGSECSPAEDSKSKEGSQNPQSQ
Cytochrome P450 2C19, sequence (P33261 whole entry): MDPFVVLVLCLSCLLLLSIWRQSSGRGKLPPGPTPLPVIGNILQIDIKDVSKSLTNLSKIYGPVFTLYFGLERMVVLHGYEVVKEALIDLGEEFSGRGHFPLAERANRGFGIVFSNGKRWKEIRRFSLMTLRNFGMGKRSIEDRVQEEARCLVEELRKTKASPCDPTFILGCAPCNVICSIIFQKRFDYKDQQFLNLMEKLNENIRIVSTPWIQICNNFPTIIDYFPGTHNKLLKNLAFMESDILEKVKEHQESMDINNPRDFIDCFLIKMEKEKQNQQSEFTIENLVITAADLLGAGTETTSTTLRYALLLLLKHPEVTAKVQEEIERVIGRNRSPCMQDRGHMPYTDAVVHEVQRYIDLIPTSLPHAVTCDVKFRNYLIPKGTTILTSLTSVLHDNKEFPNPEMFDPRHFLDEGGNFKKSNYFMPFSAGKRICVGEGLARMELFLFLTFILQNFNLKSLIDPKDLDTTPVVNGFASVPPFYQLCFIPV
Albumin, sequence (P02769 whole entry): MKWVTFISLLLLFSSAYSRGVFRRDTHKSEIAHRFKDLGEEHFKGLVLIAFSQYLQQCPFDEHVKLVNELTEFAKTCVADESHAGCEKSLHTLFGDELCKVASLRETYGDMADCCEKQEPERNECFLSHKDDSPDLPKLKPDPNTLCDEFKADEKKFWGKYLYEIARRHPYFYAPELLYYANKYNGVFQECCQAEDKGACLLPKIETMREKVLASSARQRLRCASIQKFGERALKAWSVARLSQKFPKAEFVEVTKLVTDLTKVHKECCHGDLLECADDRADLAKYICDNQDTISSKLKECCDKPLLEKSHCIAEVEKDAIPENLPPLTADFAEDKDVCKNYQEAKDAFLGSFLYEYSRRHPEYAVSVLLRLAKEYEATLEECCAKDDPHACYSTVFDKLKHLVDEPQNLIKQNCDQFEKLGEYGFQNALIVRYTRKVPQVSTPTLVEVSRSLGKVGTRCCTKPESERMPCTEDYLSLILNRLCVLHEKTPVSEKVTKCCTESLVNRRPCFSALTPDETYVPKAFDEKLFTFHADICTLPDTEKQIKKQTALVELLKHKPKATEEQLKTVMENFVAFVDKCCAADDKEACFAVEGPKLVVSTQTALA
Bcl-2-like protein 1, sequence (Q07817 whole entry): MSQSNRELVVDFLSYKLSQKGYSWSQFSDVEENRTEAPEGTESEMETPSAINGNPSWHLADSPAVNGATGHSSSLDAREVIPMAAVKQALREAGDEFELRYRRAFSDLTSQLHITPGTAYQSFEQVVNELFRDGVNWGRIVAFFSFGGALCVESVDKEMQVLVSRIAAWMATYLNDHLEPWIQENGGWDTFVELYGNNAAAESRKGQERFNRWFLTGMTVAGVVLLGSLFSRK
Cytochrome P450 2D6, sequence (P10635 whole entry): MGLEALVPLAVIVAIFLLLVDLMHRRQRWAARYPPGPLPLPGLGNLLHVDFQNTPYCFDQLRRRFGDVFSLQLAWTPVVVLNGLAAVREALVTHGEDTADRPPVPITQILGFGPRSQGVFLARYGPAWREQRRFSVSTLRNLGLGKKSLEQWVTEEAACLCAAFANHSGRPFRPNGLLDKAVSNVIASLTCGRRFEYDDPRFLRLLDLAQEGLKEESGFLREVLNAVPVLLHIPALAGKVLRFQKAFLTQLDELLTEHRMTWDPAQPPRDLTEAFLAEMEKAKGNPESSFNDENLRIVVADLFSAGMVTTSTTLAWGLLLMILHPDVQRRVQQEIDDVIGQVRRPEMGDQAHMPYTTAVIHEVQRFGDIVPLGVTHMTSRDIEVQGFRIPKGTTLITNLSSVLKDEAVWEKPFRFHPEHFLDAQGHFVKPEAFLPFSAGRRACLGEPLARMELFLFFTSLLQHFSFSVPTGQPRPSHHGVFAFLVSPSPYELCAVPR
Luciferin 4-monooxygenase, sequence (P08659 whole entry): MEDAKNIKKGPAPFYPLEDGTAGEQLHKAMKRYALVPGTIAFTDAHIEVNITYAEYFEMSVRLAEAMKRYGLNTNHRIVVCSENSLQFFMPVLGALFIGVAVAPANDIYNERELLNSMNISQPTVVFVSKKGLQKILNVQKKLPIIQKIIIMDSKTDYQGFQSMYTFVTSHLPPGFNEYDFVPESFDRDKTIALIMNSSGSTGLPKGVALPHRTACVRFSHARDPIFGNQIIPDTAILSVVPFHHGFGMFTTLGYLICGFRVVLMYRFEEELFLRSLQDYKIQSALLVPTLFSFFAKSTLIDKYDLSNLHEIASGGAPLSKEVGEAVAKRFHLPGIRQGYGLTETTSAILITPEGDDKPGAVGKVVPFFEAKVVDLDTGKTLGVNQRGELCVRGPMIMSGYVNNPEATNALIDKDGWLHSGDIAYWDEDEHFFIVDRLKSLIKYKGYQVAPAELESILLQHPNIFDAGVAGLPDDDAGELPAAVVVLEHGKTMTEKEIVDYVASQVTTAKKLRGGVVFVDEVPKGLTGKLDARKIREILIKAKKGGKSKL
Induced myeloid leukemia cell differentiation protein Mcl-1, sequence (Q07820 whole entry): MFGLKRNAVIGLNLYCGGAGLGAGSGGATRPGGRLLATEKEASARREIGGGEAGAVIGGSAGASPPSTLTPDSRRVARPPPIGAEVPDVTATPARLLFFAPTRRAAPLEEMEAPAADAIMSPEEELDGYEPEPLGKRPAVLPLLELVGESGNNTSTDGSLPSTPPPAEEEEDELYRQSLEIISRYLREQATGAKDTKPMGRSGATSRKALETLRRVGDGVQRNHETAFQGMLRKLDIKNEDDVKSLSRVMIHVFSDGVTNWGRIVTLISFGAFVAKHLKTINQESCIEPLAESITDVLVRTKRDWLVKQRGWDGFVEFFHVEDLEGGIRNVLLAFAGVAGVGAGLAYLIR
5-hydroxytryptamine receptor 1A, sequence (P08908 whole entry): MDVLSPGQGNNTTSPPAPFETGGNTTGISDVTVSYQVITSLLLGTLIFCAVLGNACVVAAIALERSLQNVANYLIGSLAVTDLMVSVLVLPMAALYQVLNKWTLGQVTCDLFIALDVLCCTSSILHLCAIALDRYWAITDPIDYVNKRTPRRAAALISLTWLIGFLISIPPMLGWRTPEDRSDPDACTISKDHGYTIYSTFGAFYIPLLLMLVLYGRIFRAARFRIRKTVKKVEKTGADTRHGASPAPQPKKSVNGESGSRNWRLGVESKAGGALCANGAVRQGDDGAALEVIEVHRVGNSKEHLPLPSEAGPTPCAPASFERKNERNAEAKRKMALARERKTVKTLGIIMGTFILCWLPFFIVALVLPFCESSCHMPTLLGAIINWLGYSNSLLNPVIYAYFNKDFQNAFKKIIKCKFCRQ

SMILES: O=C(c1ccco1)[C@@H]1[C@@H]2C(=O)N(c3ccccc3)C(=O)[C@@H]2C2c3ccccc3C=CN21 (stereo partly drawn)
- IC50 [1]: 23.4 µM (active)
- EC50 [2]: 39.1 µM (active)
- EC50 [3]: 34.9 µM (active)

SMILES: O=C(O)C1CCCCC1C(=O)NCCc1c[nH]c2ccccc12 (stereo not drawn)
- EC50 [4]: 34.8 µM (not active)
- IC50 (Protein skinhead-1): > 100 µM (inactive)

SMILES: C(=Nc1ncnc2sccc12)NOCc1ccccc1
- EC50 [5]: > 120 µM (not active)

SMILES: Cc1cc(NC(=O)c2ccc3c(c2)C(=O)N(Cc2cccnc2)C3=O)no1
- IC50 [6]: > 100 µM (not active)
- IC50 [7]: 13.7 µM (not active)

SMILES: Cc1ccc(-c2cc(C(=O)NCc3ccco3)c3ccccc3n2)o1
- EC50 [8]: > 112 µM (not active)
- IC50 (Estrogen receptor): 6.84 µM (active)
- IC50 [9]: 4.39 µM (active)
- EC50 [10]: 36.8 µM (active)
- IC50 (Estrogen receptor beta [11]): 3.37 µM (active)
- IC50 (Estrogen receptor beta [12]): > 50 µM (not active)

SMILES: Cc1ccc(OCC(=O)c2c(N)n(C)c(=O)n(C)c2=O)c([N+](=O)[O-])n1
- IC50 (Albumin): > 94.1 µM (inactive)
- IC50 [13]: 8.63 µM (active)
- AC50 (Caspase-6): 18.9 µM (active)
- IC50 (Bcl-2-like protein 1): 21.3 µM (not active)

SMILES: C/C(=N\OC(=O)c1ccccc1)c1cc(-c2ccc(Cl)cc2)no1
- AC50 (Cytochrome P450 2D6): inconclusive
- EC50 [14]: 1.04 µM (active)
- EC50 [15]: 1.28 µM (active)
- EC50 [16]: 4.74 µM (active)
- EC50 (H4): 68.1 µM (active)
- AC50 (Cytochrome P450 2C19): 22.4 µM (inconclusive)
- EC50 [17]: < 0.1 µM (active)

SMILES: Cc1ccc(C)c(NC(=S)NC(=O)c2cncc(Br)c2)c1
- IC50 [18]: > 66 µM (inactive)
- EC50 [19]: 4.77 µM (active)
- IC50 [20]: > 66 µM (inactive)
